Assay results as given in PMC6018958 (ACS Omega, 2017).

Assays:
EGFR^L858R [1] = molecular target: T1, EGFR^L858R (Homo sapiens, UniProt P00533, L858R); assay: Kinetic characterization; assay type: biochemical
EGFR^L858R/T790M [2] = molecular target: T2, EGFR^L858R/T790M (Homo sapiens, UniProt P00533, L858R/T790M); assay: biochemical
EGFR^WT [3] = molecular target: T3, EGFR^WT (Homo sapiens, UniProt P00533); assay: Kinetic characterization; assay type: biochemical
EGFR^L858R/T790M [4] = molecular target: T2, EGFR^L858R/T790M; assay: Kinetic characterization; assay type: biochemical
EGFR^WT [5] = molecular target: T3, EGFR^WT; assay: biochemical
EGFR^L858R [6] = molecular target: T1, EGFR^L858R; assay: biochemical
[7] = tested on: kinases that harbor a cysteine comparable to C797 in the hinge region; assay: SelectScreen kinase profiling; assay type: biochemical; conditions: compound concentration 1 μM; almost all cysteine-containing kinases (Table S1)
EGFR^T790M = EGFR^T790M (Homo sapiens, UniProt P00533, T790M); assay: SelectScreen kinase profiling; assay type: biochemical
EGFR^L858R/T790M [8] = molecular target: T2, EGFR^L858R/T790M; assay: SelectScreen kinase profiling

T3 sequence (P00533 25-1210): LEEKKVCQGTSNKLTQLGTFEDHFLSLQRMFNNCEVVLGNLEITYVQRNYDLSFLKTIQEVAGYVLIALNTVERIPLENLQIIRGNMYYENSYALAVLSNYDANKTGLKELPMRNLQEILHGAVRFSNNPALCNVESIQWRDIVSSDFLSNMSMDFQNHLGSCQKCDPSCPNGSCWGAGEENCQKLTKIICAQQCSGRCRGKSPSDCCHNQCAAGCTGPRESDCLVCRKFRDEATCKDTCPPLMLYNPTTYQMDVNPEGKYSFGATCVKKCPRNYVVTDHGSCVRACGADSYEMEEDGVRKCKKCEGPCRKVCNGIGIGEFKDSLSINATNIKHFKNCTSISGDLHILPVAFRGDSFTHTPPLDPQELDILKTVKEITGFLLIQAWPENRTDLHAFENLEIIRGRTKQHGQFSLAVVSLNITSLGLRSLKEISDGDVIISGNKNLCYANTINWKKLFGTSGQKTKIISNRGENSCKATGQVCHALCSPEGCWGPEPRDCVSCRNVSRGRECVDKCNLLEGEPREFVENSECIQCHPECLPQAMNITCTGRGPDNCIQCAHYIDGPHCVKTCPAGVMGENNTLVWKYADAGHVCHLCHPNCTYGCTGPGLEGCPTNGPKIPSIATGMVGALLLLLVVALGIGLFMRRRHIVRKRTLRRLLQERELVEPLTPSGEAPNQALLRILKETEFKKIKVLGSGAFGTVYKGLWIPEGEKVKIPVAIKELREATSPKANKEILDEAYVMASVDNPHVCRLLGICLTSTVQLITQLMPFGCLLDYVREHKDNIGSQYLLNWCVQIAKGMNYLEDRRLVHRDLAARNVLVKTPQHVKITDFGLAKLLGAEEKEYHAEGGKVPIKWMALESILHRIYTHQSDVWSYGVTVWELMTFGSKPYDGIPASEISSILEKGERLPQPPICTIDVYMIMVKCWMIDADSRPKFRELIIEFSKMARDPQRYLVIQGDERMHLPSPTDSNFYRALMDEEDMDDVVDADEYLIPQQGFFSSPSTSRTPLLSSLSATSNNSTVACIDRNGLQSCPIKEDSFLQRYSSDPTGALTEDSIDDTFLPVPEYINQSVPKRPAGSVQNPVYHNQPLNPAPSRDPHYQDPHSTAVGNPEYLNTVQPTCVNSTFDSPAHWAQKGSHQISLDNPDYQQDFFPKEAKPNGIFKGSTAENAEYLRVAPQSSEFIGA
T2 sequence (P00533 25-1210 T790M/L858R): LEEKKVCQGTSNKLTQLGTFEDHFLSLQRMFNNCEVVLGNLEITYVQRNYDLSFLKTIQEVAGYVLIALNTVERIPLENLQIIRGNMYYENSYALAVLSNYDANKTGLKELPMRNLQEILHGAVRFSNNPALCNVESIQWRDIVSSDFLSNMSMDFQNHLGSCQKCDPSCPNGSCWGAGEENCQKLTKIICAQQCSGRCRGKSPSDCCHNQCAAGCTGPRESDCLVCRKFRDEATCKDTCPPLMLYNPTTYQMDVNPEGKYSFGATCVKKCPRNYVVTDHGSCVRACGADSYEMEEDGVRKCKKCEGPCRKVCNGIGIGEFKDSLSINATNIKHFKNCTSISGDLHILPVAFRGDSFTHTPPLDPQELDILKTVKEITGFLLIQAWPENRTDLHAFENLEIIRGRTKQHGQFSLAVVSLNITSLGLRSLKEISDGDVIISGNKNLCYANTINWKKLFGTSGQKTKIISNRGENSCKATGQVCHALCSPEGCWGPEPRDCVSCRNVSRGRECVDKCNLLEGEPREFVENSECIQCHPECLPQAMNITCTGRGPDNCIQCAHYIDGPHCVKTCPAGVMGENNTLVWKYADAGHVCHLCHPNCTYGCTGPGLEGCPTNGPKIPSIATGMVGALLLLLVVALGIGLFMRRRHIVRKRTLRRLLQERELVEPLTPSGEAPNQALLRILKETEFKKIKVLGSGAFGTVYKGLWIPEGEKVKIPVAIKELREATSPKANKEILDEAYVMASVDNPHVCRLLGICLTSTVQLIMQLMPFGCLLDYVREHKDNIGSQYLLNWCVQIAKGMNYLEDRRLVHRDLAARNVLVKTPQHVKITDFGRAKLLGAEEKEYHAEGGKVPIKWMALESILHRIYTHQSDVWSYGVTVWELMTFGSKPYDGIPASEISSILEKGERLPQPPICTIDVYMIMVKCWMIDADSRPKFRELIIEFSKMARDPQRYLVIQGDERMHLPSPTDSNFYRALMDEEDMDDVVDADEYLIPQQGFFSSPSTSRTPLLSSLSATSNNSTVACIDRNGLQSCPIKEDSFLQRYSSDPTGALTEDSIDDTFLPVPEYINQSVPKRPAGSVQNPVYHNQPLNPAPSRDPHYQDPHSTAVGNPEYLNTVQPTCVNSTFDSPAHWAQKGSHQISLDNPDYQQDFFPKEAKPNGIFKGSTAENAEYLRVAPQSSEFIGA
T1 sequence (P00533 25-1210 L858R): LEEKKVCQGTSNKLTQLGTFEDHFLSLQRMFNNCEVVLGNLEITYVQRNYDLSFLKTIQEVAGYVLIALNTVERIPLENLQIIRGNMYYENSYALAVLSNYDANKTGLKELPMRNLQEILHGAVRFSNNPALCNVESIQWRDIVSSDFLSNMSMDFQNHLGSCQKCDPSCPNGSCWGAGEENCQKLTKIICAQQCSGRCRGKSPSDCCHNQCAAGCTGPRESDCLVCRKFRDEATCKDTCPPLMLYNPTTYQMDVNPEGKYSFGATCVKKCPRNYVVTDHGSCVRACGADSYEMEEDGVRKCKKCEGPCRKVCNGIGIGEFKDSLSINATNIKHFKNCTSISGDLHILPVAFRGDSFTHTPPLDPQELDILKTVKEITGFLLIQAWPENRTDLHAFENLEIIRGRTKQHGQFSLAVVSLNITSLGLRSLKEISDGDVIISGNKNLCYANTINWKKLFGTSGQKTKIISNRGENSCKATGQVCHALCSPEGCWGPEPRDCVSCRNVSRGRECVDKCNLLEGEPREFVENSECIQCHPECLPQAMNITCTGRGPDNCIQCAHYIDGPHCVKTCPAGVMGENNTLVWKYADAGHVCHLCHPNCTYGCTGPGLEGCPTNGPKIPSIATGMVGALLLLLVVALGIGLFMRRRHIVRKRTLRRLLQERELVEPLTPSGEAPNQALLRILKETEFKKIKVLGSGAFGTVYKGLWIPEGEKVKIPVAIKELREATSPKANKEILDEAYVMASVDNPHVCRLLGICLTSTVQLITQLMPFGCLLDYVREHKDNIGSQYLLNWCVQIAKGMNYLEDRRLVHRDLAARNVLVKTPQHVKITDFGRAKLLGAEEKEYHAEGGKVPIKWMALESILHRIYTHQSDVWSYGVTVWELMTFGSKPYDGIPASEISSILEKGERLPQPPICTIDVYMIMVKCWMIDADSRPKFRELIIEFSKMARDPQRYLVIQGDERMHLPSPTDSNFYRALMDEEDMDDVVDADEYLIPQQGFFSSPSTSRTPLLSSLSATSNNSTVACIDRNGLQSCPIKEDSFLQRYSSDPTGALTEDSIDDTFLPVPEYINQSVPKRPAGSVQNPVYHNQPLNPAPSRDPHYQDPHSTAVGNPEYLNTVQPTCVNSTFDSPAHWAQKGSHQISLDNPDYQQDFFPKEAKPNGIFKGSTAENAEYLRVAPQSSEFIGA
EGFR^T790M, sequence (P00533 25-1210 T790M): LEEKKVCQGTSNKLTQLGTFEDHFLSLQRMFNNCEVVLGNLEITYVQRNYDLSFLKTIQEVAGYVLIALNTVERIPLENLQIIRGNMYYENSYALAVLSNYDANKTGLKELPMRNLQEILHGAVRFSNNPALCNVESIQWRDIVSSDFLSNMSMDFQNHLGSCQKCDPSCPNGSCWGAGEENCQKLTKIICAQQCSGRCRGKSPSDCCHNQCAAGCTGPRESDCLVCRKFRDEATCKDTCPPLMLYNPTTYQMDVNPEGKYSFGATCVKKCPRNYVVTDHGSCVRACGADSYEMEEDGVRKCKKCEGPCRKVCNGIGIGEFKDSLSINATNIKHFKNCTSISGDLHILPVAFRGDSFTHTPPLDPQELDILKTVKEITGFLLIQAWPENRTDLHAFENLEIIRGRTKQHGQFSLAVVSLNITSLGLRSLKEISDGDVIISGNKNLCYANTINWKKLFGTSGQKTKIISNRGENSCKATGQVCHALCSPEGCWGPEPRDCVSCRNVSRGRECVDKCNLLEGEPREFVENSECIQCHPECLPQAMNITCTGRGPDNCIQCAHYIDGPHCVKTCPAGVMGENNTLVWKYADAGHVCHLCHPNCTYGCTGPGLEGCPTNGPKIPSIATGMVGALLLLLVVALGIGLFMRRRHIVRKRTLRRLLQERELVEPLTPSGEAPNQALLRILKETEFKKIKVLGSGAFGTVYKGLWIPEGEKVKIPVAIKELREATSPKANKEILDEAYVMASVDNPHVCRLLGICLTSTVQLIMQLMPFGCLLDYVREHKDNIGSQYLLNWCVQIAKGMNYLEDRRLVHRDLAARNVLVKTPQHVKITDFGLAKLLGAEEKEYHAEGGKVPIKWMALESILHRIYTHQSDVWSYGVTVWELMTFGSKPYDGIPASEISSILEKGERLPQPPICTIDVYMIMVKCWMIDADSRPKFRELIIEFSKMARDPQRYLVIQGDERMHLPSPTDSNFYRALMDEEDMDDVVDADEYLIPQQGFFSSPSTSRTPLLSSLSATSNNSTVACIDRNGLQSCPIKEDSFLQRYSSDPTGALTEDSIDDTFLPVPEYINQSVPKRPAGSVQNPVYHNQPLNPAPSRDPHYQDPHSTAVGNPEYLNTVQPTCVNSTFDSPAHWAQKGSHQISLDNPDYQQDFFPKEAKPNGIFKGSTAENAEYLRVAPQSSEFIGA

Structure (SMILES) | Ki (EGFR^L858R [1]) [µM] | kinact (EGFR^L858R [1]) [s⁻¹] | kinact/KI (EGFR^L858R [1]) [M⁻¹ s⁻¹] | IC50 (EGFR^L858R/T790M [2]) [µM] | Ki (EGFR^WT [3]) [µM] | kinact (EGFR^WT [3]) [s⁻¹] | kinact/KI (EGFR^WT [3]) [M⁻¹ s⁻¹] | Ki (EGFR^L858R/T790M [4]) [µM] | kinact (EGFR^L858R/T790M [4]) [s⁻¹] | kinact/KI (EGFR^L858R/T790M [4]) [M⁻¹ s⁻¹] | IC50 (EGFR^WT [5]) [µM] | IC50 (EGFR^L858R [6]) [µM] | inhibition [7] | inhibition at 1 µM (EGFR^T790M) [%] | inhibition at 1 µM (EGFR^L858R/T790M [8]) [%]
N#C/C(=C\C1CC1)C(=O)N1CCC[C@@H](n2nc(-c3cccc4ccccc34)c3c(N)ncnc32)C1 [1c, (R,E)-2-(3-(4-Amino-3-(naphthalen-1-yl)-1H-pyrazolo[3,4-d]pyrimidin-1-yl)piperidine-1-carbonyl)-3-cyclopropylacrylonitrile] | 0.014 ± 0.002 | 0.000667 | 680000 ± 250000 | 0.08 ± 0.051 | 0.064 ± 0.001 | 0.0005 | 10000 ± 10000 | 0.015 ± 0.003 | 0.00183 | 730000 ± 160000 | 0.102 ± 0.075 |  |  |  | 
N#C/C(=C\C1CC1)C(=O)N1CCC[C@@H](n2nc(-c3ccccc3)c3c(N)ncnc32)C1 [1a, (R,E)-2-(3-(4-Amino-3-phenyl-1H-pyrazolo[3,4-d]pyrimidin-1-yl)piperidine-1-carbonyl)-3-cyclopropylacrylonitrile] |  |  |  | 4.54 ± 0.543 |  |  |  |  |  |  | 5.38 ± 3.89 | 0.229 ± 0.062 |  |  | 
Cn1cc(-c2nn([C@@H]3CCCN(C(=O)/C(C#N)=C/C4CC4)C3)c3ncnc(N)c23)c2ccccc21 [1e, (R,E)-2-(3-(4-Amino-3-(1-methyl-1H-indol-3-yl)-1H-pyrazolo[3,4-d]pyrimidin-1-yl)piperidine-1-carbonyl)-3-cyclopropylacrylonitrile] | 0.079 ± 0.009 | 0.002 | 260000 ± 70000 | 0.213 ± 0.049 | 1.67 ± 0.45 | 0.00283 | 10000 ± 10000 | 0.083 ± 0.01 | 0.00217 | 360000 ± 20000 | 0.338 ± 0.069 | 0.085 ± 0.034 |  |  | 

The remaining compounds from weak to strong by IC50 (EGFR^L858R/T790M [2]), led by results:

Ki (EGFR^L858R [1]) [µM] | kinact (EGFR^L858R [1]) [s⁻¹] | kinact/KI (EGFR^L858R [1]) [M⁻¹ s⁻¹] | IC50 (EGFR^L858R/T790M [2]) [µM] | Ki (EGFR^WT [3]) [µM] | kinact (EGFR^WT [3]) [s⁻¹] | kinact/KI (EGFR^WT [3]) [M⁻¹ s⁻¹] | Ki (EGFR^L858R/T790M [4]) [µM] | kinact (EGFR^L858R/T790M [4]) [s⁻¹] | kinact/KI (EGFR^L858R/T790M [4]) [M⁻¹ s⁻¹] | IC50 (EGFR^WT [5]) [µM] | IC50 (EGFR^L858R [6]) [µM] | inhibition [7] | inhibition at 1 µM (EGFR^T790M) [%] | inhibition at 1 µM (EGFR^L858R/T790M [8]) [%] | Structure (SMILES)
 |  |  | 2.54 ± 0.42 |  |  |  |  |  |  | > 10 | 0.385 ± 0.207 |  |  |  | N#C/C(=C\C1CC1)C(=O)N1CCC[C@@H](n2nc(-c3cccc(C(F)(F)F)c3)c3c(N)ncnc32)C1 [1b, (R,E)-2-(3-(4-Amino-3-(3-(trifluoromethyl)phenyl)-1H-pyrazolo[3,4-d]pyrimidin-1-yl)piperidine-1-carbonyl)-3-cyclopropylacrylonitrile]
0.037 ± 0.006 | 0.003 | 200000 ± 10000 | 0.02 ± 0.013 | 0.265 ± 0.001 | 0.000667 | 10000 ± 10000 | 0.051 ± 0.002 | 0.00283 | 50000 ± 20000 | 0.096 ± 0.026 | 0.01 ± 0.008 | more than 50% | ~90 | ~90 | N#C/C(=C\C1CC1)C(=O)N1CCC[C@@H](n2nc(-c3cnc4[nH]ccc4c3)c3c(N)ncnc32)C1 [1d, (R,E)-2-(3-(4-Amino-3-(1H-pyrrolo[2,3-b]pyridin-5-yl)-1H-pyrazolo[3,4-d]pyrimidin-1-yl)piperidine-1-carbonyl)-3-cyclopropylacrylonitrile]
